Assays:
[1] = Nephrotoxicity in BABL/c mouse assessed as increased uric acid level at 30 mg/kg, ip administered daily for 21 days relative to vehicle; type: toxicity, organism-based; conditions: in vivo, 504 h, time 21 day
HeLa [2] = test: Inhibition of colony formation in human HeLa cells at 50 nM and treated for every 48 hrs with fresh medium measured after 14 days by crystal violet staining method ( Rvb = 67.3%); type: functional; set-up: scale not given: the % may be the effect or the level left; conditions: time 14 day
[3] = Nephrotoxicity in BABL/c mouse assessed as increased uric acid level at 60 mg/kg, ip administered daily for 21 days relative to vehicle; type: toxicity, organism-based; conditions: in vivo, 504 h, time 21 day
HeLa [4] = test: Antitumour activity against human HeLa cells xenografted in BABL/c mouse assessed as reduction in tumor weight at 60 mg/kg, ip administered daily for 21 days ( Rvb = 3.36 g); type: functional; conditions: time 21 day
HeLa [5] = test: Antitumor activity against human HeLa cells xenografted in BABL/c mouse assessed as tumor growth inhibition at 30 mg/kg, ip administered daily for 21 days relative to control; type: functional; conditions: 504 h, time 21 day, read-out: TGI
HeLa [6] = test: Induction of cell cycle arrest in human HeLa cells assessed as accumulation of cells at G2/M phase at 0.2 uM after 24 hrs by propidium iodide staining based flow cytometric analysis (reference value: 20.3%); type: functional
Tubulin = Tubulin (Sus scrofa, UniProt P02554+P02550); test: Inhibition of pig brain tubulin polymerization by spectrophotometeric analysis; set-up: species or system Sus scrofa domesticus
[7] = Toxicity against BABL/c mouse assessed as morphological changes in kidney at 30 to 60 mg/kg, ip administered daily for 21 days by H and E staining method; type: organism-based; conditions: in vivo, 504 h, dose 30-60 mg/kg, time 21 day
HeLa [8] = test: Induction of cell cycle arrest in human HeLa cells assessed as < 2N cells at 0.2 uM measured after 24 hrs by propidium iodide staining based flow cytometric analysis analysis ( Rvb = 7.07%); type: functional
HeLa [9] = test: Induction of cell cycle arrest in human HeLa cells assessed as S-phase at 0.2 uM measured after 24 hrs by propidium iodide staining based flow cytometric analysis analysis ( Rvb = 15.5%); type: functional
[10] = Nephrotoxicity in BABL/c mouse assessed as increased uric acid level at 30 mg/kg, ip administered daily for 21 days followed by addition of 3 mg/kg DDP for every 2 days relative to vehicle; type: toxicity, organism-based; conditions: in vivo, 504 h, time 21 day
HeLa [11] = test: Induction of apoptosis in human HeLa cells assessed as necrotic cells at 0.2 uM measured after 24 hrs by Annexin V-FITC/7-AAD staining based flow cytometric analysis (reference value: 0.56%); type: functional
HeLa [12] = test: Induction of cell cycle arrest in human HeLa cells assessed as < 2N cells at 0.4 uM measured after 24 hrs by propidium iodide staining based flow cytometric analysis analysis ( Rvb = 7.07%); type: functional
[13] = Acute toxicity in ICR male mouse assessed as body weight gain at 100 to 1000 mg/kg, ip measured daily for 14 days; type: organism-based; conditions: in vivo, 336 h, dose 100-1000 mg/kg, time 14 day
Tubulin (Sus scrofa) = Tubulin (Sus scrofa) (UniProt P02554+P02550); test: Inhibition of pig brain tubulin polymerization at 3 uM by spectrophotometer analysis relative to control; set-up: scale not given: the % may be the effect or the level left; conditions: Sus scrofa domesticus
Tubulin (Sus scrofa), sequence (P02550 whole entry, looked up): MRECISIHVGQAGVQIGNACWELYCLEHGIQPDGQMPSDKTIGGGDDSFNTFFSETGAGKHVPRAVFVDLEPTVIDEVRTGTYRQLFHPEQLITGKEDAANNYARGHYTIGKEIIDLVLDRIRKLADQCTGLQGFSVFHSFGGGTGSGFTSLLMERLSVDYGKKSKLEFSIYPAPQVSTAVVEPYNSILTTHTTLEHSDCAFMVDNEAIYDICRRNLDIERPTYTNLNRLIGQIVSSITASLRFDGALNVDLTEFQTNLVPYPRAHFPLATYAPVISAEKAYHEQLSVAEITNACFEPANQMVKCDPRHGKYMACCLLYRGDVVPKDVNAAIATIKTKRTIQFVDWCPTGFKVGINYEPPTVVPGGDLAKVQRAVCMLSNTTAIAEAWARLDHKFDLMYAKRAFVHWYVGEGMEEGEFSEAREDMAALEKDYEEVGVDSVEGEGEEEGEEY
Tubulin (Sus scrofa), sequence (P02554 whole entry, looked up): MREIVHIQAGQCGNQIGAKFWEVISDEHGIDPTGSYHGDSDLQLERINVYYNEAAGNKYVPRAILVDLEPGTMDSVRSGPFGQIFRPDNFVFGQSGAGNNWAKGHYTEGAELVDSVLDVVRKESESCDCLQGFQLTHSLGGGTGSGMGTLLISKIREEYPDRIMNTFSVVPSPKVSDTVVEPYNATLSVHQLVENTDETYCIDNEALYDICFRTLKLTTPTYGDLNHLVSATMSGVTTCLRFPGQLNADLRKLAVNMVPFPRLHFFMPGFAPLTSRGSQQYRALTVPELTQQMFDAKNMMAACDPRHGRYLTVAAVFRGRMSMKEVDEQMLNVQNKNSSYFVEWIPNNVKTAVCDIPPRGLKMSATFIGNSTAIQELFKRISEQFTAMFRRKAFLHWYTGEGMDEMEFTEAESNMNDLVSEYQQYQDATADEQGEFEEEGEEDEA

[14] = Toxicity against BABL/c mouse assessed as morphological changes in heart at 30 to 60 mg/kg, ip administered daily for 21 days by H and E staining method; type: organism-based; conditions: in vivo, 504 h, dose 30-60 mg/kg, time 21 day
hERG (KCNH2) = hERG (KCNH2) (Homo sapiens, UniProt Q12809); test: Inhibition of human ERG expressed in CHO cells at 40 uM with holding potential of -80 mV by whole cell patch clamp assay relative to control; type: toxicity, cell-based; conditions: CHO cells that express hERG
hERG (KCNH2), sequence (Q12809 whole entry): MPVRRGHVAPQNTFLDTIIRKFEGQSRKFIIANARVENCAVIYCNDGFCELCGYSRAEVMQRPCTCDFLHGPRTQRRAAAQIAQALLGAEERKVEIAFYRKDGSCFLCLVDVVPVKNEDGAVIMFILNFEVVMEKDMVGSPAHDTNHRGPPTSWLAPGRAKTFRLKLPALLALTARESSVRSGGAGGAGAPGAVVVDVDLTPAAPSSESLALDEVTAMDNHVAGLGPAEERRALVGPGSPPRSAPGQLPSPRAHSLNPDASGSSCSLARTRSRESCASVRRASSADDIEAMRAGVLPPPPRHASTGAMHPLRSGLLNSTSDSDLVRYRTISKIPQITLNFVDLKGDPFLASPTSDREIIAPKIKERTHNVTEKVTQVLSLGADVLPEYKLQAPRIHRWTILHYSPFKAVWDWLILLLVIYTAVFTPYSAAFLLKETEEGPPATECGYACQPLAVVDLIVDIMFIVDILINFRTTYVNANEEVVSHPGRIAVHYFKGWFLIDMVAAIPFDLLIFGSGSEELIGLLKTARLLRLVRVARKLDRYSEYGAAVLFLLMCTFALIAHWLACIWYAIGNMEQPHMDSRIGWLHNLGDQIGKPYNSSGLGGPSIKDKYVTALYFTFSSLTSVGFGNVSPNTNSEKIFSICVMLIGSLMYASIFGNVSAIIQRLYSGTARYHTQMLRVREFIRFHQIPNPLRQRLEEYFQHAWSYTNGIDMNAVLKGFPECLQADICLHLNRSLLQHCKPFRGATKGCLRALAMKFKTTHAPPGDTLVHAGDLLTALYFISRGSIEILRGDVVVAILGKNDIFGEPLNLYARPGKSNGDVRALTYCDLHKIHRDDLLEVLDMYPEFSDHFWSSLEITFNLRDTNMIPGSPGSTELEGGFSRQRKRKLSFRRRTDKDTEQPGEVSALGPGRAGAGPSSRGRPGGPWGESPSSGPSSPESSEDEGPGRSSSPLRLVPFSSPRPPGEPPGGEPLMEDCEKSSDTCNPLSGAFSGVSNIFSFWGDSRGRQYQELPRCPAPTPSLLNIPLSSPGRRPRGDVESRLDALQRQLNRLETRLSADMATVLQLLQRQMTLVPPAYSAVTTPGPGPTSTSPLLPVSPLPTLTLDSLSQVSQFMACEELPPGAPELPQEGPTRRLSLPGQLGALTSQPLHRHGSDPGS

[15] = target: T1, Tubulin beta (Homo sapiens) (UniProt P68371+Q9H4B7+Q13509+P04350+Q3ZCM7+P07437+Q13885+Q9BVA1+Q9BUF5+A6NNZ2); test: Binding affinity to beta-tubulin colchicine binding site in human HeLa cells assessed as decrease of adduct formation by measuring gray value measured at 1 uM incubated for 2 hrs followed by addition of EBI measured after 1.5 hrs by EBI competition based Western blotting analysis; type: cell-based; conditions: time 3.5 hrs
HeLa [16] = test: Induction of apoptosis in human HeLa cells assessed as early apoptotic cells at 0.2 uM measured after 24 hrs by Annexin V-FITC/7-AAD staining based flow cytometric analysis (reference value: 20.8%); type: functional
[17] = Acute toxicity in ICR mouse assessed as median lethal dose administered intraperitoneally upto 14 days; conditions: in vivo, route ip, time < 14 day
[18] = Acute toxicity against ICR mouse assessed as morphological changes in spleen at 1000 mg/kg, ip measured after 14 days by H and E staining method; type: organism-based; conditions: in vivo, 336 h, time 14 day
[19] = Tmax in C57 nude mouse at 30 mg/kg, ip measured at 0.083 to 24 hrs by LC/MS/MS analysis; type: ADME, organism-based; conditions: in vivo, time 0.083-24 hrs
[20] = target: T1, Tubulin beta (Homo sapiens); test: Binding affinity to beta-tubulin colchicine binding site in human HeLa cells assessed as inhibition of EBI-beta-tubulin adduct formation measured at 1 to 100 uM incubated for 2 hrs followed by addition of EBI measured after 1.5 hrs by EBI competition based Western blotting analysis; type: cell-based; conditions: dose 1-100 µM, time 3.5 hrs, DDE = dose-dependent effect
[21] = AUC(0 to t) in C57 nude mouse at 30 mg/kg, ip measured at 0.083 to 24 hrs by LC/MS/MS analysis; type: ADME, organism-based; set-up: dose 30 mg/kg, time upper 24 hrs, time lower 0.083 hrs, route ip; conditions: in vivo
[22] = Resistant factor, ratio of IC50 for antiproliferative activity against human HeLa/DDP cells to IC50 for human HeLa cells; type: functional
HeLa [23] = test: Induction of cell cycle arrest in human HeLa cells assessed as accumulation of cells at G2/M phase at 6 nM after 24 hrs by propidium iodide staining based flow cytometric analysis (reference value: 17.1%); type: functional
HeLa [24] = test: Induction of apoptosis in human HeLa cells assessed as necrotic cells at 3 nM measured after 24 hrs by Annexin V-FITC/7-AAD staining based flow cytometric analysis (reference value: 0.45%); type: functional
HeLa [25] = test: Induction of cell cycle arrest in human HeLa cells assessed as 2N cells at 3 nM measured after 24 hrs by propidium iodide staining based flow cytometric analysis analysis ( Rvb = 41.7%); type: functional
HeLa [26] = test: Antimigratory activity against human HeLa cells at 6 nM measured after 24 hrs by scratch wound healing based fluorescence inverted microscopic analysis; type: functional
HeLa [27] = test: Induction of apoptosis in human HeLa cells assessed as necrotic cells at 6 nM measured after 24 hrs by Annexin V-FITC/7-AAD staining based flow cytometric analysis (reference value: 0.45%); type: functional
HeLa [28] = test: Induction of cell cycle arrest in human HeLa cells assessed as >4N cells at 6 nM measured after 24 hrs by propidium iodide staining based flow cytometric analysis analysis relative to control; type: functional
HeLa [29] = test: Induction of apoptosis in human HeLa cells assessed as viable cells at 3 nM measured after 24 hrs by Annexin V-FITC/7-AAD staining based flow cytometric analysis (reference value: 75.5%); type: functional; conditions: read-out: Activity

**Q.** For CCOc1ccc(-c2cncnc2-c2cc(OC)c(OC)c(OC)c2)cc1Cl, which Activity [1] is on record?
**A.** 21%

**Q.** What about the Activity (HeLa [2]) of the same compound?
**A.** 36.8%

**Q.** And the Activity [3]?
**A.** 36%

**Q.** What about the Activity (HeLa [4]) of the same compound?
**A.** 1.42 g

**Q.** What about the inhibition in vivo at 30 mg/kg (HeLa [5]) of the same compound?
**A.** 35%

**Q.** And the Activity (HeLa [6])?
**A.** 47.6%

**Q.** What about the IC50 (Tubulin) of the same compound?
**A.** 4.6 µM

**Q.** What about the Activity [7] of the same compound?
**A.** Non-Toxic

**Q.** And the Activity (HeLa [8])?
**A.** 0.59%

**Q.** What about the Activity (HeLa [9]) of the same compound?
**A.** 16.6%

**Q.** What about the Activity [10] of the same compound?
**A.** 16%

**Q.** And the Activity (HeLa [11])?
**A.** 0.52%

**Q.** And the Activity (HeLa [12])?
**A.** 0.26%

**Q.** What about the Activity [13] of the same compound?
**A.** 8.1 g

**Q.** What about the Activity (Tubulin (Sus scrofa)) of the same compound?
**A.** 39%

**Q.** What about the Activity [14] of the same compound?
**A.** Non-Toxic

**Q.** What about the inhibition at 40 µM (hERG (KCNH2)) of the same compound?
**A.** 65%

**Q.** What about the Activity [15] of the same compound?
**A.** 0.53

**Q.** And the Activity (HeLa [16])?
**A.** 66.4%

**Q.** What about the LD50 at 336 h [17] of the same compound?
**A.** 1000 mg/kg

**Q.** And the Activity [18]?
**A.** Non-Toxic

**Q.** What about the Tmax [19] of the same compound?
**A.** 15 min

**Q.** And the Activity [20]?
**A.** Dde

**Q.** And the AUC(0-t) [21]?
**A.** 5610 ng·h/mL

**Q.** And the “Ratio IC50” value [22]?
**A.** 79.2

**Q.** What does the source list for COc1ccc(/C=C\c2cc(OC)c(OC)c(OC)c2)cc1O [COMBRETASTATIN A4]?
**A.** Activity (HeLa [23]): 35.3%; Activity (HeLa [24]): 0.64%; Activity (HeLa [25]): 24.9%; Activity (HeLa [26]): 73%; Activity (HeLa [27]): 0.62%; Activity (HeLa [28]): 6.35%; viability at 0.003 µM (HeLa [29]): 44.7%

From ChEMBL document CHEMBL5154820 (Eur J Med Chem, 2022)
